Columns and labels:
[1] = Permeability across human Caco-2 cells; type: ADME, cell-based; details: read-out: permeability
[2] = Stability in rabbit liver microsome after 1 hr; type: ADME, Oryctolagus cuniculus; details: liver microsomes, read-out: Stability

| Papp [1] | remaining at 1 h [2] | SMILES |
| --- | --- | --- |
| 17.3 ×10⁻⁶ cm/s | – | COc1ccc(CNc2ncnc3c(CCO)c(OC)c(NC(C)=O)cc23)cc1Cl |
| – | > 80% | CCCc1c(OC)c(NC(=O)C(F)(F)F)cc2c(NCc3ccc(OC)c(Cl)c3)ncnc12 |
| 46.9 ×10⁻⁶ cm/s | > 80% | CCC(=O)Nc1cc2c(NCc3ccc(OC)c(Cl)c3)ncnc2c(CCO)c1OC |

From ChEMBL document CHEMBL1152170 (Bioorg Med Chem Lett, 2008)
